# pEC50: −log10 of the molar value.
# Assay: Inhibition of p-glycoprotein in human MDA435/LCC6MDR cells assessed as concentration required to reduce taxol IC50 by half after 5 days by MTS assay
smiles,measurement,value
CCN(CC)c1ccc(Cc2c(Cc3ccc(OC)c(OC)c3)nc(N(C(=O)/C=C/c3cc(OC)c(OC)c(OC)c3)C(=O)/C=C/c3cc(OC)c(OC)c(OC)c3)n2C)cc1,pEC50,6.68
CCN(CC)c1ccc(Cc2c(Cc3ccc(OC)c(OC)c3)nc(NC(=O)c3cc(OC)c(OC)c(OC)c3)n2C)cc1,pEC50,6.67
